Measured values from patent US12011506B2, “Combination and uses and treatments thereof” (priority 2017, dated 2024).

Test: Established and other potentially significant drug interactions with JULUCA (effect on concentration)
Type: in vivo, human
Conditions: based on drug interaction trials or predicted interactions
Description: These recommendations are based on either drug interaction trials of individual components or predicted interactions due to the expected magnitude of interaction and potential for serious adverse events or loss of efficacy.
With `CCC(=O)C(CC(C)N(C)C)(c1ccccc1)c1ccccc1` (centres unmarked) [Methadone] the “Effect on Concentration of the concomitant drug” value (shortened to “Effect … of the concomitant drug”) was “↓Methadone”. In the case of `CO[C@H]1/C=C/O[C@@]2(C)Oc3c(C)c(O)c4c(c3C2=O)C2=NC3(CCN(CC(C)C)CC3)NC2=C(NC(=O)/C(C)=C\C=C\[C@H](C)[C@H](O)[C@@H](C)[C@@H](O)[C@@H](C)[C@H](OC(C)=O)[C@@H]1C)C4=O` [Rifabutin], the “Effect … of the concomitant drug” value is reported as “↔Rifabutin”. With `CN(CCOc1ccc(NS(C)(=O)=O)cc1)CCc1ccc(NS(C)(=O)=O)cc1` [Dofetilide] the “Effect … of the concomitant drug” value was “↑Dofetilide”.

Same assay, conditions: concomitant drug with JULUCA; based on drug interaction trials or predicted interactions
With `Cc1c(OCC(F)(F)F)ccnc1C[S+]([O-])c1nc2ccccc2[nH]1` (centres unmarked) [Lansoprazole] the “Effect on Concentration of Rilpivirine” value was “↓Rilpivirine”. With `CO[C@H]1/C=C/O[C@@]2(C)Oc3c(C)c(O)c4c(O)c(c(/C=N/N5CCN(C)CC5)c(O)c4c3C2=O)NC(=O)/C(C)=C\C=C\[C@H](C)[C@H](O)[C@@H](C)[C@@H](O)[C@@H](C)[C@H](OC(C)=O)[C@@H]1C` [Rifampin] the “Effect on Concentration of Rilpivirine” value was “↓Rilpivirine”. For `CC[C@H]1OC(=O)[C@H](C)[C@@H](O[C@H]2C[C@@](C)(OC)[C@@H](O)[C@H](C)O2)[C@H](C)[C@@H](O[C@@H]2O[C@H](C)C[C@H](N(C)C)[C@H]2O)[C@](C)(OC)C[C@@H](C)C(=O)[C@H](C)[C@@H](O)[C@]1(C)O` [Clarithromycin], the “Effect on Concentration of Dolutegravir” value was “↔Dolutegravir” and the “Effect on Concentration of Rilpivirine” value was “↑Rilpivirine”. With `NC(N)=Nc1nc(CSCCC(N)=NS(N)(=O)=O)cs1` [Famotidine] the “Effect on Concentration of Dolutegravir” value was “↔Dolutegravir” and the “Effect on Concentration of Rilpivirine” value was “↓Rilpivirine”. With `COCCCOc1ccnc(C[S+]([O-])c2nc3ccccc3[nH]2)c1C` (centres unmarked) [Rabeprazole] the “Effect on Concentration of Rilpivirine” value was “↓Rilpivirine”. In the case of `COc1ccc2nc([S@@+]([O-])Cc3ncc(C)c(OC)c3C)[nH]c2c1` [Esomeprazole], the “Effect on Concentration of Rilpivirine” value is reported as “↓Rilpivirine”. For `CC[C@H]1OC(=O)[C@H](C)[C@@H](O[C@H]2C[C@@](C)(OC)[C@@H](O)[C@H](C)O2)[C@H](C)[C@@H](O[C@@H]2O[C@H](C)C[C@H](N(C)C)[C@H]2O)[C@](C)(O)C[C@@H](C)C(=O)[C@H](C)[C@@H](O)[C@]1(C)O` [Erythromycin], the “Effect on Concentration of Dolutegravir” value was “↔Dolutegravir” and the “Effect on Concentration of Rilpivirine” value was “↑Rilpivirine”. With `CNC(=C[N+](=O)[O-])NCCSCc1csc(CN(C)C)n1` [Nizatidine] the “Effect on Concentration of Dolutegravir” value was “↔Dolutegravir” and the “Effect on Concentration of Rilpivirine” value was “↓Rilpivirine”. In the case of `COc1ccnc(C[S+]([O-])c2nc3ccc(OC(F)F)cc3[nH]2)c1OC` (centres unmarked) [Pantoprazole], the “Effect on Concentration of Rilpivirine” value is reported as “↓Rilpivirine”. In the case of `C[C@@H]1C[C@H]2[C@@H]3CCC4=CC(=O)C=C[C@]4(C)[C@@]3(F)[C@@H](O)C[C@]2(C)[C@@]1(O)C(=O)CO` [Dexamethasone], the “Effect on Concentration of Rilpivirine” value is reported as “↓Rilpivirine”. With `NC(=O)N1c2ccccc2C=Cc2ccccc21` [Carbamazepine] the “Effect on Concentration of Rilpivirine” value was “↓Rilpivirine”. In the case of `CCC(=O)C(CC(C)N(C)C)(c1ccccc1)c1ccccc1` (centres unmarked) [Methadone], the “Effect on Concentration of Dolutegravir” value is reported as “↔Dolutegravir” and the “Effect on Concentration of Rilpivirine” value is reported as “↔Rilpivirine”. For `CCC1(c2ccccc2)C(=O)NC(=O)NC1=O` [Phenobarbital], the “Effect on Concentration of Rilpivirine” value was “↓Rilpivirine”. In the case of `CNC(=C[N+](=O)[O-])NCCSCc1ccc(CN(C)C)o1` [Ranitidine], the “Effect on Concentration of Dolutegravir” value is reported as “↔Dolutegravir” and the “Effect on Concentration of Rilpivirine” value is reported as “↓Rilpivirine”. In the case of `CO[C@H]1/C=C/O[C@@]2(C)Oc3c(C)c(O)c4c(O)c(c(/C=N/N5CCN(C6CCCC6)CC5)c(O)c4c3C2=O)NC(=O)/C(C)=C\C=C\[C@H](C)[C@H](O)[C@@H](C)[C@@H](O)[C@@H](C)[C@H](OC(C)=O)[C@@H]1C` [Rifapentine], the “Effect on Concentration of Rilpivirine” value is reported as “↓Rilpivirine”. With `CC[C@H]1OC(=O)[C@H](C)C(=O)[C@H](C)[C@@H](O[C@@H]2O[C@H](C)C[C@H](N(C)C)[C@H]2O)[C@](C)(OC)C[C@@H](C)C(=O)[C@H](C)[C@H]2N(CCCCn3cnc(-c4cccnc4)c3)C(=O)O[C@]12C` [Telithromycin] the “Effect on Concentration of Dolutegravir” value was “↔Dolutegravir” and the “Effect on Concentration of Rilpivirine” value was “↑Rilpivirine”. For `NC(=O)N1c2ccccc2CC(=O)c2ccccc21` [Oxcarbazepine], the “Effect on Concentration of Rilpivirine” value was “↓Rilpivirine”. For `O=C1NC(=O)C(c2ccccc2)(c2ccccc2)N1` [Phenytoin], the “Effect on Concentration of Rilpivirine” value was “↓Rilpivirine”. For `CN/C(=N/CCSCc1nc[nH]c1C)NC#N` [Cimetidine], the “Effect on Concentration of Dolutegravir” value was “↔Dolutegravir” and the “Effect on Concentration of Rilpivirine” value was “↓Rilpivirine”. With `CO[C@H]1/C=C/O[C@@]2(C)Oc3c(C)c(O)c4c(c3C2=O)C2=NC3(CCN(CC(C)C)CC3)NC2=C(NC(=O)/C(C)=C\C=C\[C@H](C)[C@H](O)[C@@H](C)[C@@H](O)[C@@H](C)[C@H](OC(C)=O)[C@@H]1C)C4=O` [Rifabutin] the “Effect on Concentration of Dolutegravir” value was “↔Dolutegravir” and the “Effect on Concentration of Rilpivirine” value was “↓Rilpivirine”. With Sucralfate the “Effect on Concentration of Dolutegravir” value was “↓Dolutegravir”.

Test: Drug interaction trials: effect of rilpivirine on pharmacokinetics of coadministered drugs
Conditions: No Effect = 1.00
For `CCCc1nn(C)c2c(=O)[nH]c(-c3cc(S(=O)(=O)N4CCNCC4)ccc3OCC)nc12` [N-desmethyl-sildenafil], the “Cmax of coadministered drug, geometric mean ratio with/without EDURANT” value (“Cmax … geometric mean ratio with/without EDURANT” below) was 0.90. With `CC(=O)N1CCN(c2ccc(OCC3COC(Cn4ccnc4)(c4ccc(Cl)cc4Cl)O3)cc2)CC1` (centres unmarked) [Ketoconazole] the “AUC of coadministered drug, geometric mean ratio with/without EDURANT” value was 0.76, the “Cmax … geometric mean ratio with/without EDURANT” value was 0.85 and the “Cmin of coadministered drug, geometric mean ratio with/without EDURANT” value (“Cmin … geometric mean ratio with/without EDURANT” below) was 0.34. In the case of `COc1ccc2c(O[C@@H]3C[C@H]4C(=O)N[C@]5(C(=O)NS(=O)(=O)C6CC6)C[C@H]5/C=C\CCCCN(C)C(=O)[C@@H]4C3)cc(-c3nc(C(C)C)cs3)nc2c1C` [Simeprevir], the “AUC of coadministered drug, geometric mean ratio with/without EDURANT” value is reported as 1.06, the “Cmax … geometric mean ratio with/without EDURANT” value is reported as 1.10 and the “Cmin … geometric mean ratio with/without EDURANT” value is reported as 0.96. With `CC(C)c1c(C(=O)Nc2ccccc2O)c(-c2ccccc2)c(-c2ccc(F)cc2)n1CCC(O)CC(O)CC(=O)O` (centres unmarked) [2-hydroxy-atorvastatin] the “AUC of coadministered drug, geometric mean ratio with/without EDURANT” value was 1.39, the “Cmax … geometric mean ratio with/without EDURANT” value was 1.58 and the “Cmin … geometric mean ratio with/without EDURANT” value was 1.32. For `CO[C@H]1/C=C/O[C@@]2(C)Oc3c(C)c(O)c4c(O)c(c(/C=N/N5CCN(C)CC5)c(O)c4c3C2=O)NC(=O)/C(C)=C\C=C\[C@H](C)[C@H](O)[C@@H](C)[C@@H](O)[C@@H](C)[C@H](O)[C@@H]1C` [25-desacetylrifampin], the “AUC of coadministered drug, geometric mean ratio with/without EDURANT” value was 0.91 and the “Cmax … geometric mean ratio with/without EDURANT” value was 1.00. With `C[C@H]1O[C@@H](O[C@H]2[C@@H](O)C[C@H](O[C@H]3[C@@H](O)C[C@H](O[C@H]4CC[C@@]5(C)[C@H](CC[C@@H]6[C@@H]5C[C@@H](O)[C@]5(C)[C@@H](C7=CC(=O)OC7)CC[C@]65O)C4)O[C@@H]3C)O[C@@H]2C)C[C@H](O)[C@@H]1O` [Digoxin] the “Cmax … geometric mean ratio with/without EDURANT” value was 1.06. In the case of `CC(C)c1c(C(=O)Nc2ccc(O)cc2)c(-c2ccccc2)c(-c2ccc(F)cc2)n1CC[C@@H](O)C[C@@H](O)CC(=O)O` [4-hydroxy-atorvastatin], the “AUC of coadministered drug, geometric mean ratio with/without EDURANT” value is reported as 1.23 and the “Cmax … geometric mean ratio with/without EDURANT” value is reported as 1.28.

Same assay, conditions: No Effect = 1.00; footnote c
In the case of `CCCc1nn(C)c2c(=O)[nH]c(-c3cc(S(=O)(=O)N4CCNCC4)ccc3OCC)nc12` [N-desmethyl-sildenafil], the “AUC(0-last) of coadministered drug, geometric mean ratio with/without EDURANT” value is reported as 0.92. With `C[C@H]1O[C@@H](O[C@H]2[C@@H](O)C[C@H](O[C@H]3[C@@H](O)C[C@H](O[C@H]4CC[C@@]5(C)[C@H](CC[C@@H]6[C@@H]5C[C@@H](O)[C@]5(C)[C@@H](C7=CC(=O)OC7)CC[C@]65O)C4)O[C@@H]3C)O[C@@H]2C)C[C@H](O)[C@@H]1O` [Digoxin] the “AUC(0-last) of coadministered drug, geometric mean ratio with/without EDURANT” value was 0.98.
